In patent US10683278B2 (JINAN UNIVERSITY, priority 2015, dated 2020):
pIC50: −log10 of the molar value.

Target: T1, AXL kinase (Homo sapiens, UniProt P30530)
T1 construct: purchased Invitrogen PV4803
T1 sequence (P30530 26-894): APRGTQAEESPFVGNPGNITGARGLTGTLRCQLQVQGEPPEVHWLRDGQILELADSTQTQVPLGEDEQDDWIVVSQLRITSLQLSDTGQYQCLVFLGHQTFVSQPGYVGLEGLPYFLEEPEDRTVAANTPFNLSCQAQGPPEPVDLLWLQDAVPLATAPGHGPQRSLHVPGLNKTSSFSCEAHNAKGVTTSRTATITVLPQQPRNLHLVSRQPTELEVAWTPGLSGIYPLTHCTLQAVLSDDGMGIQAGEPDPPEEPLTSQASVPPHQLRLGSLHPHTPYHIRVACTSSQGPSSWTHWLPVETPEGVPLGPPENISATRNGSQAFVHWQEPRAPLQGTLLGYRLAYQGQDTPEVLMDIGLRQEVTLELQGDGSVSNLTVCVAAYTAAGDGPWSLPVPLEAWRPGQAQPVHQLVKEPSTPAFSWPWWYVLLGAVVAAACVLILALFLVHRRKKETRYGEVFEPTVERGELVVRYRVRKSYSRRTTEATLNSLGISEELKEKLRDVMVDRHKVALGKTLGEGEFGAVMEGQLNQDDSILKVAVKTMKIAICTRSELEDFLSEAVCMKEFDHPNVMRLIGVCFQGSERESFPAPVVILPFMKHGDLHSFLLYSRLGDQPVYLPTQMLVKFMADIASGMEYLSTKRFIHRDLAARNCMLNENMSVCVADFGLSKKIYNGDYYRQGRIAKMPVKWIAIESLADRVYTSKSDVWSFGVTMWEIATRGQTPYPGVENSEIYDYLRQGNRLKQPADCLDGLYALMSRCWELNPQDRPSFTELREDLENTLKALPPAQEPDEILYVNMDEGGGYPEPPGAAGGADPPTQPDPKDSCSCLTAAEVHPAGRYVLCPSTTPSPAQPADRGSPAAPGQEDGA
Assay: IC50 test on AXL kinase (Z′-LYTE FRET kinase activity detection)
Assay type: biochemical
Conditions: Z′-LYTE FRET peptide assay, 1 h reaction
Source text: Kinase activity detection: The activity of compounds on kinases was detected by a secondary reaction which used the Z′-LYTE™ technique (a detection using fluorescence, enzyme coupling, and based on differences in susceptibility of phosphorylated and non-phosphorylated polypeptides to proteolytic cleavage), followed the fluorescence resonance energy transfer (FRET) principle, and used Z′-LYTE™ FRET peptide substrates (Invitrogen, Z′-LYTE™ KINASE ASSAY KIT—TYR 2 PEPTIDE, PV3191). AXL kinase (invitrogen, PV4803) was diluted stepwise, FRET peptide was then added, followed by ATP, then by compounds at different concentrations, reacted for 1 h, site-specific proteases were then added to recognize and cleave non-phosphorylated FRET peptides, reacted for 1 h, and […] at 445 nm and 520 nm were detected using excitation wavelength of 400 nm.

CCn1cc(C(=O)Nc2ccc(Oc3ncnc4cc(OC)c(OC)cc34)c(F)c2)c(=O)c2cc(F)c(N3CCNCC3)nc21 [GDL5000102, N-(4-((6,7-dimethoxyquinazolin-4-yl)oxy)-3-fluorophenyl)-1-ethyl-6-fluoro-4-oxo-7-(piperazin-1-yl)-1,4-dihydro-1,8-naphthyridine-3-carboxamide]
pIC50: 7.19

Cc1c(C(=O)Nc2ccc(Oc3ccnc4[nH]cc(-c5ccccc5)c34)c(F)c2)c(=O)c2cc(Cl)ccc2n1C [TL50128, 6-chloro-N-(3-fluoro-4-((3-phenyl-1H-pyrrolo[2,3-b]pyridin-4-yl)oxy)phenyl)-1,2-dimethyl-4-oxo-1,4-dihydroquinoline-3-carboxamide]
pIC50: 6.68

COc1cc2ncnc(Oc3ccc(NC(=O)c4cn(-c5ccc(F)cc5F)c5nc(N6CCC(N)C6)c(F)cc5c4=O)cc3F)c2cc1OC (centres unmarked) [GDL5000101, 7-(3-aminopyrrolidin-1-yl)-1-(2,4-difluorophenyl)-N-(4-(6,7-dimethoxyquinazolin-4-yloxy)-3-fluorophenyl)-6-fluoro-4-oxo-1,4-dihydro-1,8-naphthyridine-3-carboxamide]
pIC50: 7.09

Cc1c(C(=O)Nc2ccc(Oc3ncnc4[nH]cc(-c5ccccc5)c34)c(F)c2)c(=O)c2ccccc2n1C [TL50054, N-(3-fluoro-4-((5-phenyl-7H-pyrrolo[2,3-d]pyrimidin-4-yl)oxy)phenyl)-1,2-dimethyl-4-oxo-1,4-dihydroquinoline-3-carboxamide]
pIC50: < 5.00

CCc1ccc2c(c1)c(=O)c(C(=O)Nc1ccc(Oc3ncnc4cc(OCCCN(C)C)c(OC)cc34)c(F)c1)c(C)n2C [TL4830076, N-(4-(7-(3-(dimethylamino)propoxy)-6-methoxyquinazolin-4-yloxy)-3-fluorophenyl)-6-ethyl-1,2-dimethyl-4-oxo-1,4-dihydroquinoline-3-carboxamide]
pIC50: 8.96

CCCn1c(C)c(C(=O)Nc2ccc(Oc3ncnc4[nH]cc(-c5ccccc5)c34)c(F)c2)c(=O)c2cc(C)ccc21 [TL4800104, N-(3-fluoro-4-(5-phenyl-7H-pyrrolo[2,3-d]pyrimidin-4-yloxy)phenyl)-2,6-dimethyl-4-oxo-1-propyl-1,4-dihydroquinoline-3-carboxamide]
pIC50: 6.27

COc1cc2ncnc(Oc3ccc(NC(=O)c4c5n(c6cc(N7CCN(Cc8oc(=O)oc8C)CC7)c(F)cc6c4=O)C(C)S5)cc3F)c2cc1OC (centres unmarked) [GDL5000082, N-(4-((6,7-dimethoxyquinazolin-4-yl)oxy)-3-fluorophenyl)-6-fluoro-1-methyl-7-(4-((5-methyl-2-oxo-1,3-dioxol-4-yl)methyl)piperazin-1-yl)-4-oxo-1,4-dihydro-[1,3]thiazeto[3,2-a]quinoline-3-carboxamide]
pIC50: 6.14

Cc1ccc2c(c1)c(=O)c(C(=O)Nc1ccc(Oc3ncnc4[nH]cc(-c5ccccc5)c34)c(F)c1)c(C)n2-c1ccccc1 [GDL5000083, N-(3-fluoro-4-((5-phenyl-7H-pyrrolo[2,3-d]pyrimidine-4-yl)oxy)phenyl)-2,6-dimethyl-4-oxo-1-phenyl-1,4-hydroquinoline-3-carboxamide]
pIC50: 6.21

COc1cc2ncnc(Oc3ccc(NC(=O)c4cn(C5CC5)c5c(F)c(N6CC(C)NC(C)C6)c(F)c(N)c5c4=O)cc3F)c2cc1OC (centres unmarked) [TL4830044, 5-amino-1-cyclopropyl-N-(4-(6,7-dimethoxyquinazolin-4-yloxy)-3-fluorophenyl)-7-(3,5-dimethylpiperazin-1-yl)-6,8-difluoro-4-oxo-1,4-dihydroquinoline-3-carboxamide]
pIC50: 6.30

CCCCn1c(C)c(C(=O)Nc2ccc(Oc3ncnc4[nH]cc(-c5ccccc5)c34)c(F)c2)c(=O)c2cc(C)ccc21 [TL4800080, 1-butyl-N-(3-fluoro-4-((5-phenyl-7H-pyrrolo[2,3-d]pyrimidin-4-yl)oxy)phenyl)-2,6-dimethyl-4-oxo-1,4-dihydroquinoline-3-carboxamide]
pIC50: 6.32

CCc1ccc2c(c1)c(=O)c(C(=O)Nc1ccc(Oc3ccnc(N)c3)c(F)c1)c(C)n2C [GDL5000050, N-(4-(2-aminopyridin-4-yloxy)-3-fluorophenyl)-6-ethyl-1,2-dimethyl-4-oxo-1,4-dihydroquinoline-3-carboxamide]
pIC50: 6.05

COc1cc2ncnc(Oc3ccc(NC(=O)c4cn5c6c(c(N7CCN(C)CC7)c(F)cc6c4=O)OC[C@@H]5C)cc3F)c2cc1OC [GDL5000111, (S)—N-(4-((6,7-dimethoxyquinazolin-4-yl)oxy)-3-fluorophenyl)-9-fluoro-3-methyl-10-(4-methylpiperazin-1-yl)-7-oxo-3,7-dihydro-2H-[1,4]oxazino[2,3,4-ij]quinoline-6-carboxamide]
pIC50: 5.96

CCCc1ccc2c(c1)c(=O)c(C(=O)Nc1ccc(Oc3ncnc4[nH]cc(-c5ccccc5)c34)c(F)c1)c(C)n2C [TL4800116, N-(3-fluoro-4-((5-phenyl-7H-pyrrolo[2,3-d]pyrimidin-4-yl)oxy)phenyl)-1,2-dimethyl-4-oxo-6-propyl-1,4-dihydroquinoline-3-carboxamide]
pIC50: 7.21

Cc1c(C(=O)Nc2ccc(Oc3ncnc4[nH]cc(-c5ccccc5)c34)c(F)c2)c(=O)c2cc(-c3cnn(C4CCNCC4)c3)ccc2n1C [TL50180]
pIC50: < 5.00

Cc1ccc2[nH]c(C)c(C(=O)Nc3ccc(Oc4ncnc5[nH]cc(-c6ccccc6)c45)c(F)c3)c(=O)c2c1 [TL4800025, N-(3-fluoro-4-((5-phenyl-7H-pyrrolo[2,3-d]pyrimidin-4-yl)oxy)phenyl)-2,6-dimethyl-4-oxo-1,4-dihydroquinoline-3-carboxamide]
pIC50: 6.25

Cc1c(C(=O)Nc2ccc(Oc3ncnc4[nH]cc(-c5ccccc5)c34)c(F)c2)c(=O)c2cc(-c3ccccc3)ccc2n1C [TL50163, N-(3-fluoro-4-(5-phenyl-7H-pyrrolo[2,3-d]pyrimidin-4-yloxy)phenyl)-1,2-dimethyl-4-oxo-6-phenyl-1,4-dihydroquinoline-3-carboxamide]
pIC50: < 5.00

COc1ccc2c(c1)c(=O)c(C(=O)Nc1ccc(Oc3ncnc4[nH]cc(-c5ccccc5)c34)c(F)c1)c(C)n2C [TL4800005, N-(3-fluoro-4-((5-phenyl-7H-pyrrolo[2,3-d]pyrimidin-4-yl)oxy)phenyl)-6-methoxy-1,2-dimethyl-4-oxo-1,4-dihydroquinoline-3-carboxamide]
pIC50: 7.00

Cc1c(C(=O)Nc2ccc(Oc3ncnc4[nH]cc(-c5ccccc5)c34)c(F)c2)c(=O)c2cc3ccccc3cc2n1C [TL50198, N-(3-fluoro-4-((5-phenyl-7H-pyrrolo[2,3-d]pyrimidin-4-yl)oxy)phenyl)-1,2-dimethyl-4-oxo-1,4-dihydrobenzo[g]quinoline-3-carboxamide]
pIC50: < 5.00

Cc1ccc2c(c1)c(=O)c(C(=O)Nc1ccc(Oc3ncnc4c3c(-c3ccccc3)cn4C)c(F)c1)c(C)n2C [TL50134, N-(3-fluoro-4-(7-methyl-5-phenyl-7H-pyrrolo[2,3-d]pyrimidin-4-yloxy)phenyl)-1,2,6-trimethyl-4-oxo-1,4-dihydroquinoline-3-carboxamide]
pIC50: < 5.00

Cc1c(C(=O)Nc2ccc(Oc3ncnc4[nH]ccc34)c(F)c2)c(=O)c2cc(Cl)ccc2n1C [TL50046, N-(4-((7H-pyrrolo[2,3-d]pyrimidin-4-yl)oxy)-3-fluorophenyl)-6-chloro-1,2-dimethyl-4-oxo-1,4-dihydroquinoline-3-carboxamide]
pIC50: < 5.00

CCc1ccc2c(c1)c(=O)c(C(=O)Nc1ccc(Oc3ncnc4[nH]cc(-c5ccccc5)c34)c(F)c1)cn2C [TL4800178, 6-ethyl-N-(3-fluoro-4-(5-phenyl-7H-pyrrolo[2,3-d]pyrimidin-4-yloxy)phenyl)-1-methyl-4-oxo-1,4-dihydroquinoline-3-carboxamide]
pIC50: 7.25

CCc1c(C(=O)Nc2ccc(Oc3ncnc4[nH]cc(-c5ccccc5)c34)c(F)c2)c(=O)c2cc(C)ccc2n1C [TL4800139, 2-ethyl-N-(3-fluoro-4-(5-phenyl-7H-pyrrolo[2,3-d]pyrimidin-4-yloxy)phenyl)-1,6-dimethyl-4-oxo-1,4-dihydroquinoline-3-carboxamide]
pIC50: 7.11

CCc1ccc2c(c1)c(=O)c(C(=O)Nc1ccc(Oc3ncnc4[nH]cc(-c5ccccc5)c34)cc1)c(C)n2C [TL4830014, 6-ethyl-1,2-dimethyl-4-oxo-N-(4-((5-phenyl-7H-pyrrolo[2,3-d]pyrimidin-4-yl)oxy)phenyl)-1,4-dihydroquinoline-3-carboxamide]
pIC50: 6.98
